Values joined by “and” are separate entries in the source; they are usually repeats but may differ in a detail not shown here. Identical values can stand only once.
How the values were obtained:
nAChRs [1] = assay type: biochemical, mouse
Procedure: (§1) Neurotransmitter Release from Striatal Synaptosomes. After a mouse was sacrificed by cervical dislocation, its brain was removed and placed immediately on an ice-cold platform and brain regions were dissected. Tissues from each mouse were homogenized in 0.5 ml of ice-cold 0.32 M sucrose buffered with 5 mM HEPES, pH 7.5. A crude synaptosomal pellet was prepared by centrifugation at 12,000 g for 20 min. The pellets were resuspended in “uptake buffer”: 128 mM NaCl, 2.4 mM KCl, 3.2 mM CaCl2, 1.2 mM KH2PO4, 1.2 mM MgSO4, 25 mM HEPES, pH 7.5, 10 mM glucose. For DA uptake, buffer was supplemented with 1 mM ascorbic acid and 0.01 mM pargyline, whereas for GABA uptake, buffer was supplemented with 1 mM aminooxyacetic acid. For [^3H]GABA uptake, synaptosomes were incubated for 10 min at 37° C. […] For DA uptake, synaptosomes were incubated at 37° C. in uptake buffer for 10 min before addition of 100 nM [^3H]dopamine (1 μCi for every 0.2 ml of synaptosomes), and the suspension was incubated for an additional 5 min.
(§2) All experiments were conducted at room temperature using methods described previously (Nashmi et al., 2007; Salminen et al., 2007) with modifications for collection into 96-well plates. In brief, aliquots of synaptosomes (80 μl) were distributed onto filters and perfused with buffer (uptake buffer containing 0.1% bovine serum albumin and 1 μM atropine with 1 μM nomifensine (for DA release) or 0.1 μM NNC-711 [1-(2-(((diphenylmethylene)amino)oxy)ethyl)-1,2,5,6-tetrahydro-3-pyridinecarboxylic acid hydrochloride]) (for GABA release) at 0.7 ml/min for 10 min, or buffer for 5 min followed by buffer with 50 nM αCtxMII. […] Fractions (−0.1 ml) were collected for 4 min into 96-well plates every 10 sec starting from 1 min before stimulation, using a Gilson FC204 fraction collector with a multicolumn adapter (Gilson, Inc.; Middleton, Wis.). Radioactivity was determined by scintillation counting using a 1450 MicroBeta Trilux scintillation counter (Perkin Elmer Life Sciences-Wallac Oy; Turku, Finland) after addition of 0.15 ml Optiphase ‘SuperMix’ scintillation cocktail. Instrument efficiency was 40%.
(§3) Data were analyzed using SigmaPlot 5.0 for DOS. Perfusion data were plotted as counts per minute versus fraction number. Fractions collected before and after the peak were used to calculate baseline as a single exponential decay. The calculated baseline was subtracted from the experimental data. Fractions that exceeded baseline by 10% or more were sunmmed to give total released cpm and then normalized to baseline to give units of release [(cpm-baseline)/baseline]. Agonist dose response data were fit to the Hill equation.

α6* nAChRs [2] = molecular target: T1, α6* nAChRs (Mus musculus, UniProt Q9ERK7+Q9R0W9); test: biochemical; assay type: biochemical
T1 construct: from tissue
Procedure: as §1, §2, §3

α6* nAChRs [3] = molecular target: T2, α6* nAChRs (Mus musculus, UniProt Q9ERK7+Q9R0W9, L280S); test: biochemical; assay type: biochemical
T2 construct: from tissue
Procedure: as §1, §2, §3

α4β2* (non-α6) nAChRs = molecular target: T3, α4β2* (non-α6) nAChRs (Mus musculus, UniProt O70174+Q9ERK7); test: biochemical; assay type: biochemical
T3 construct: from tissue; host or cells: striatal / olfactory tubercle synaptosomes of WT and α6L9′S mice
Procedure: as §1, §2, §3

[4] = molecular target: hypersensitive nicotinic receptors in α6L9′S VTA DA neurons (Mus musculus, UniProt Q9ERK7+Q9R0W9, L280S); assay type: cell-based
[5] = tested on: substantia nigra DA and GABA neurons
α6* nAChRs [6] = tested on: α6* nAChRs
Procedure: as §1, §2, §3

nAChRs [7] = molecular target: nAChRs (Mus musculus, UniProt O70174+Q9ERK7)
Procedure: as §1, §2, §3

α4β2* nAChRs = α4β2* nAChRs (Mus musculus, UniProt O70174+Q9ERK7)
Procedure: as §1, §2, §3

WT and α6^L9′S mice = settings: mouse, in vivo
LC neurons (α6* nAChRs) = assay type: cell-based, mouse
α6^L9′S mice = settings: mouse, in vivo
Procedure: Locomotor Activity. Mice used to study locomotion were eight to sixteen weeks old by the beginning of an experiment, and were back-crossed to C57BL/6 at least three times. […] Mouse horizontal locomotor activity was measured with an infrared photobeam activity cage system (San Diego Instruments; San Diego, Calif.). Ambulation events were recorded when two contiguous photobeams were broken in succession. Acute locomotor activity in response to nicotinic ligands or other agents was studied by recording ambulation events during four 15 sec intervals per minute for a designated number of minutes. For most experiments, groups of eight mice were placed in the activity cages (18×28 cm) and their baseline level of activity was recorded for eight minutes. Mice were removed from their cage, injected (100 μl per 25 g body mass), and returned to the cage within 15 sec. […] For generation of locomotor activity concentration-response relationship profiles, a group of mice was administered saline and, after five to eight days off, each successive dose of drug. […] For 48 h home cage monitoring, mice were isolated in their own cage and habituated to the test room and cage for 24 h. Following this, locomotor activity was recorded in 15 min intervals for 48 h.

[8] = tested on: αCtxMII-sensitive receptors (α6*)
[9] = molecular target: αCtxMII-resistant receptors (Mus musculus, UniProt O70174+Q9ERK7)
[10] = in vivo; cited from earlier work
[11] = in vivo; cited from earlier work; remark: listed apart in the source

T1 sequence (Q9R0W9 31-494): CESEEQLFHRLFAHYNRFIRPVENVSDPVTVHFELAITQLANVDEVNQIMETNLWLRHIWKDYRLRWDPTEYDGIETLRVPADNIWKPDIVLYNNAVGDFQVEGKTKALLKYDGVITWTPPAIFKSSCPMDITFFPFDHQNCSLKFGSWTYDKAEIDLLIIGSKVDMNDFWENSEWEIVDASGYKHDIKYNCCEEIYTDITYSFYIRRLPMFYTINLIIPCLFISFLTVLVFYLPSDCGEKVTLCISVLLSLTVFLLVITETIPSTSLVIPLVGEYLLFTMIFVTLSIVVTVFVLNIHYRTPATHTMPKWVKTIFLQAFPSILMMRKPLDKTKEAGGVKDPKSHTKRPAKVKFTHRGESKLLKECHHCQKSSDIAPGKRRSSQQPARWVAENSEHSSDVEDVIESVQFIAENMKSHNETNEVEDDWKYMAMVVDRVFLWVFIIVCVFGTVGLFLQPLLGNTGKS
T1 sequence (Q8BMN3 31-464, further chain): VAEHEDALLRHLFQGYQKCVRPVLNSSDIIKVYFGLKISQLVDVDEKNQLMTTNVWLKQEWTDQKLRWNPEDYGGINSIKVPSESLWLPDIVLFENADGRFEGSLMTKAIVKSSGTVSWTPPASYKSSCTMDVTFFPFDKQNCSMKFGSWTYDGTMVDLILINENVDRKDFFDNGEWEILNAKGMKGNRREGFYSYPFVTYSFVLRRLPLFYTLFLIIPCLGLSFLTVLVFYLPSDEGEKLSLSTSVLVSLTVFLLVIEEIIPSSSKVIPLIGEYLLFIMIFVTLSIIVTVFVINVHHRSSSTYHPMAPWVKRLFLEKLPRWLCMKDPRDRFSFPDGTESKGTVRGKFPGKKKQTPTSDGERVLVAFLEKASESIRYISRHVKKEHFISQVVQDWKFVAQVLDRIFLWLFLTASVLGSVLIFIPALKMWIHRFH
T1 sequence (Q9ERK7 26-501): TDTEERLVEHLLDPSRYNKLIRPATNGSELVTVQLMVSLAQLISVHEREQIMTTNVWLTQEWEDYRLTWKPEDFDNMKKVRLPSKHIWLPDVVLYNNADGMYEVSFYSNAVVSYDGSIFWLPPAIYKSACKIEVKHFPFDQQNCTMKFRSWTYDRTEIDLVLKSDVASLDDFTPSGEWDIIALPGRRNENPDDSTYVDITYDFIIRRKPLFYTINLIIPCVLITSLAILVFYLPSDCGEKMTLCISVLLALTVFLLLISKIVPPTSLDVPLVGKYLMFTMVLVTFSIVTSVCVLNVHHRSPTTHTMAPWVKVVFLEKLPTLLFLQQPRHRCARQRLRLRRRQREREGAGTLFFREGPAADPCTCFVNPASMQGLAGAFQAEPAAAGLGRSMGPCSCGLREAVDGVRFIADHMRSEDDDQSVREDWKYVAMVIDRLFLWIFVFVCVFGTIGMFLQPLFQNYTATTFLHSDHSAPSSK
T2 sequence (Q9ERK7 26-501, stated change not applied): as the sequence (Q9ERK7 26-501) above
T2 sequence (Q8BMN3 31-464, further chain): as the sequence (Q8BMN3 31-464, further chain) above
T2 sequence (Q9R0W9 31-494 L280S): as the sequence (Q9R0W9 31-494) above, with L250S counted along it
Sequence of α4β2* nAChRs (Q9ERK7 26-501): as the sequence (Q9ERK7 26-501) above
Sequence of α4β2* nAChRs (O70174 31-629): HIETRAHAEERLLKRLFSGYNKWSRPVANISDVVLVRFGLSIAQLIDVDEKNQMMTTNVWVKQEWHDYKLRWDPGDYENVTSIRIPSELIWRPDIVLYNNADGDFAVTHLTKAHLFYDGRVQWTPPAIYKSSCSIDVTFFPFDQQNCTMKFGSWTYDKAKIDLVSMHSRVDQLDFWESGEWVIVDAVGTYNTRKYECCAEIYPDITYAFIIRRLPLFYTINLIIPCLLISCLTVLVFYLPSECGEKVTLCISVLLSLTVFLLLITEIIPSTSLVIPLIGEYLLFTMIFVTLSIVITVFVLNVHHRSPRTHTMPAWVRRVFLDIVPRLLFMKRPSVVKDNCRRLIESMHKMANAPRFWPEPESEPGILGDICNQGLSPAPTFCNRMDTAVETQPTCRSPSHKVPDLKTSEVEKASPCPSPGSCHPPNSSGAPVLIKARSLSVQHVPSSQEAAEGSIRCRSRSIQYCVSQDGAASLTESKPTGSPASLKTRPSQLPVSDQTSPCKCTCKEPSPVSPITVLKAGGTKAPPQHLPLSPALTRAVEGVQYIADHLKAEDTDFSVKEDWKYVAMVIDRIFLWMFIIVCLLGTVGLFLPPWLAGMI
Sequence of nAChRs (Mus musculus, UniProt O70174+Q9ERK7) (Q9ERK7 26-501): as the sequence (Q9ERK7 26-501) above
Sequence of nAChRs (Mus musculus, UniProt O70174+Q9ERK7) (O70174 31-629): as the sequence (O70174 31-629) above
T3 sequence (Q9ERK7 26-501): as the sequence (Q9ERK7 26-501) above
T3 sequence (O70174 31-629): as the sequence (O70174 31-629) above
Sequence of αCtxMII-resistant receptors (O70174 31-629, change not shown): as the sequence (O70174 31-629) above
Sequence of αCtxMII-resistant receptors (Q9ERK7 26-501, change not shown): as the sequence (Q9ERK7 26-501) above
Sequence of hypersensitive nicotinic receptors in α6L9′S VTA DA neurons (Q9ERK7 whole entry, looked up, stated change not applied): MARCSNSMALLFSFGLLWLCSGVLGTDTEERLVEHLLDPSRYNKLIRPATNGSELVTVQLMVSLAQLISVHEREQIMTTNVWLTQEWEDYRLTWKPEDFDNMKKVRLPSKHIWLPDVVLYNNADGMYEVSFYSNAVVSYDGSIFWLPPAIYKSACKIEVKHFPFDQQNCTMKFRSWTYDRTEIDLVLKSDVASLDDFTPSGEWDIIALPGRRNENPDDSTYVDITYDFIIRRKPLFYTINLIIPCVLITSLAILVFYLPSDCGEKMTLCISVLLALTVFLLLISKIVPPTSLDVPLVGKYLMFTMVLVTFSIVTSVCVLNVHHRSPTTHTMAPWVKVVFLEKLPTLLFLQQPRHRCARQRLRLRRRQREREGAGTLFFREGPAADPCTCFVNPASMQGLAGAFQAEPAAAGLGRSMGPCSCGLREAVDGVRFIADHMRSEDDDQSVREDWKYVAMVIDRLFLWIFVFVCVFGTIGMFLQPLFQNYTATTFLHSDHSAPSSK
Sequence of hypersensitive nicotinic receptors in α6L9′S VTA DA neurons (Q9R0W9 whole entry, looked up, stated change not applied): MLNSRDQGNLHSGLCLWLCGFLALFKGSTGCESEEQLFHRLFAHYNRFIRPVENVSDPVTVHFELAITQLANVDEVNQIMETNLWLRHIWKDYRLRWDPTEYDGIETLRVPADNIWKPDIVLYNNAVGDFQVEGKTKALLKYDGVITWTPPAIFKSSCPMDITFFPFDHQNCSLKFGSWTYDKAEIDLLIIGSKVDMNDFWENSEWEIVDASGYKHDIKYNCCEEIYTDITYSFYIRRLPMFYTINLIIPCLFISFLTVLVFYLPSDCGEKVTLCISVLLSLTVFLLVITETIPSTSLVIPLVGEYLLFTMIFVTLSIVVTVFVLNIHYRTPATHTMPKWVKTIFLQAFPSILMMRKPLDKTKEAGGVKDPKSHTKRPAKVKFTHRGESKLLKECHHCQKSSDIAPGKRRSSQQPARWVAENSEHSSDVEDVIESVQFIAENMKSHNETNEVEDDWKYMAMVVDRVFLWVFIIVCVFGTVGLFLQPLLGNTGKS

In the case of CN1CCCC1c1cccnc1 (single isomer, unassigned) [nicotine], the “firing rate in response to local application” value (VTA DA neurons) is reported as “significant increase in the firing rate”, the “Rmax (±SEM), Total DA release” value (nAChRs [1]) is reported as 33.1 ± 2.1 and 36.0 ± 1.3 and 34.3 ± 1.7 and 20.9 ± 1.0 and 21.4 ± 0.9 and 20.8 ± 1.2 and the “Total DA release by 10 μM nic (positive control)” value (nAChRs [1]) is reported as 16.69 and 19.68 and 20.65 and 17.70 and 17.30 and 16.70. For the same molecule, the “MII-sensitive DA release by 10 μM nic (positive control)” value (α6* nAChRs [2]) was 3.19 and 1.63, the “Rmax (±SEM), MII-sensitive DA release” value (α6* nAChRs [2]) was 5.41 ± 0.54 and 7.03 ± 0.86 and the “MII-sensitive DA release by 10 μM nic (positive control)” value (α6* nAChRs [3]) was 8.53 and 5.97 and 10.77 and 10.39. The “MII-resistant DA release by 10 μM nic (positive control)” value (α4β2* (non-α6) nAChRs) was 14.55 and 8.75 and 10.78 and 15.07 and 8.91 and 10.26, the “inward currents elicited by puffs of 1 μM” value [4] was “larger than those seen in WT neurons at any concentration” and the “average responses (peak current) in GABA neurons” value [5] was under 10 pA. The “responses in WT DA and GABA neurons” value [5] was “undetectable”, the “EC50 (±SEM), MII-sensitive GABA release” value (α6* nAChRs [6]) was “no activity” and the “Rmax (±SEM), MII-sensitive GABA release” value (α6* nAChRs [6]) was “no activity”. The “Rmax (±SEM), Total GABA release” value (nAChRs [7]) was 1.64 ± 0.32 and 1.25 ± 0.06 and 1.22 ± 0.11, the “Rmax (±SEM), MII-resistant GABA release” value (α4β2* nAChRs) was 1.40 ± 0.08 and 1.26 ± 0.08 and 1.30 ± 0.10 and the “hypothermia response, WT versus α6^L9′S mice” value (WT and α6^L9′S mice) was “No difference was found”. The “responses to locally applied nicotine in LC neurons” value (LC neurons (α6* nAChRs)) was “larger responses”, the “tolerance or sensitization: change in locomotor behavior after repeated injections” value (α6^L9′S mice) was “did not produce any change in locomotor behavior” and the “αCtxMII-sensitive 86Rb+ efflux” value [8] was “hypersensitive to nicotine relative to WT”. For the same molecule, the “αCtxMII-resistant 86Rb+ efflux” value [9] was “unchanged”, the elimination half life [10] was about 7 min and the “concentration in the cerebrospinal fluid of smokers” value [11] was at most 500 nM.
